The assay deals with T1, mouse GnRH receptor (Mus musculus, UniProt Q01776).
T1 construct: expressed in transfected cells; host or cells: 293 cells
T1 sequence (Q01776 1-327): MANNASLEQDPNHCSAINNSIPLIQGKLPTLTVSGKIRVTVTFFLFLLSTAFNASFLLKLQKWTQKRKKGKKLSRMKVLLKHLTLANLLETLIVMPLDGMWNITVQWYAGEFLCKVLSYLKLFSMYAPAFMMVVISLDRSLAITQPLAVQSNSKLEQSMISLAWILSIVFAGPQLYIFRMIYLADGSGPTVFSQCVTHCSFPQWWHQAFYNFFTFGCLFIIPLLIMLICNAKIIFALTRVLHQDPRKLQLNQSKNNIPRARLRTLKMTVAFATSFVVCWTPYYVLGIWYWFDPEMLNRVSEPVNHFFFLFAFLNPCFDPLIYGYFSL
Briefly: Radioligand binding, 125I-GnRH-A, 293 cells expressing mouse GnRH receptors. The settings on record: 10 uM; read-out: % Inhib. @ 10 uM mGnRH. The method in brief:
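Bound label captured on 0.1% polyethyleneimine-treated GF/C filters, washed three times with PBS, counted. IC50 derived; identical set-up for every species.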
Consider `Cc1cc2c(cc1Cc1ccc(C(=O)N3CCC(NC(=O)OC(C)(C)C)C3)o1)C(C)(C)CCC2(C)C` (centres unmarked) [drawing 1544], for which the inhibition at 10 µM came out at 82%.

Regarding `Cc1cc2c(cc1Cc1ccc(C(=O)N3CCCC3C)o1)C(C)(C)CCC2(C)C` (centres unmarked) [drawing 1545], the inhibition at 10 µM turned out to be 102%.

Turning to `CCC(CC)NC(=O)c1ccc(Cc2cc3c(cc2C)C(C)(C)CCC3(C)C)o1` [drawing 1546], the inhibition at 10 µM was 76%.

As for `CCCC(CO)NC(=O)c1ccc(Cc2cc3c(cc2C)C(C)(C)CCC3(C)C)o1` (centres unmarked) [drawing 1547], the inhibition at 10 µM turned out to be 99%.

Consider `CCCCN(C)C(=O)c1ccc(Cc2cc3c(cc2C)C(C)(C)CCC3(C)C)o1` [drawing 1548], for which the inhibition at 10 µM came out at 100%.

With `COC(CN(C)C(=O)c1ccc(Cc2cc3c(cc2C)C(C)(C)CCC3(C)C)o1)OC` [drawing 1549], the inhibition at 10 µM stood at 90%.

As for `Cc1cc2c(cc1Cc1ccc(C(=O)NCCCCCCO)o1)C(C)(C)CCC2(C)C` [drawing 1550], the inhibition at 10 µM came to 103%.

As to `Cc1cc2c(cc1Cc1ccc(C(=O)N(CCC(c3ccccc3)c3ccccc3)Cc3ccco3)o1)C(C)(C)CCC2(C)C` [drawing 1552], the inhibition at 10 µM was 43%.

With `Cc1cc2c(cc1Cc1ccc(C(=O)N(CCC(c3ccccc3)c3ccccc3)Cc3ccccn3)o1)C(C)(C)CCC2(C)C` [drawing 1554], the inhibition at 10 µM was determined as 50%.

On to `Cc1cc2c(cc1Cc1ccc(C(=O)N(CCc3ccccc3)Cc3ccoc3)o1)C(C)(C)CCC2(C)C` [drawing 1557], for which the inhibition at 10 µM amounted to 61%.

For `COc1ccccc1CN(C(=O)c1ccc(Cc2cc3c(cc2C)C(C)(C)CCC3(C)C)o1)C1CCN(Cc2ccccc2)C1` (centres unmarked) [drawing 1558], the inhibition at 10 µM turned out to be 91%.

Consider `Cc1cc2c(cc1Cc1ccc(C(=O)N(Cc3ccco3)C3CCN(Cc4ccccc4)C3)o1)C(C)(C)CCC2(C)C` (centres unmarked) [drawing 1559], for which the inhibition at 10 µM was 94%.

Turning to `Cc1cc2c(cc1Cc1ccc(C(=O)N(Cc3ccsc3)C3CCN(Cc4ccccc4)C3)o1)C(C)(C)CCC2(C)C` (centres unmarked) [drawing 1560], the inhibition at 10 µM is 91%.

In the case of `Cc1cc2c(cc1Cc1ccc(C(=O)N(Cc3ccoc3)C3CCN(Cc4ccccc4)C3)o1)C(C)(C)CCC2(C)C` (centres unmarked) [drawing 1561], the inhibition at 10 µM came out at 91%.

Consider `Cc1cc2c(cc1Cc1ccc(C(=O)N(Cc3cccn3C)C3CCN(Cc4ccccc4)C3)o1)C(C)(C)CCC2(C)C` (centres unmarked) [drawing 1562], for which the inhibition at 10 µM worked out at 98%.

`Cc1cc2c(cc1Cc1ccc(C(=O)N(Cc3cccc4ccccc34)C3CCN(Cc4ccccc4)C3)o1)C(C)(C)CCC2(C)C` (centres unmarked) [drawing 1563]: the inhibition at 10 µM was determined as 57%.

Regarding `Cc1cc2c(cc1Cc1ccc(C(=O)N(Cc3ccc(C(C)C)cc3)C3CCN(Cc4ccccc4)C3)o1)C(C)(C)CCC2(C)C` (centres unmarked) [drawing 1564], the inhibition at 10 µM was 48%.

In the case of `CCN1CC(N(Cc2ccccc2C#N)C(=O)c2ccc(Cc3cc4c(cc3C)C(C)(C)CCC4(C)C)o2)CN1CC` [drawing 1565], the inhibition at 10 µM came to 101%.

`CCN1CC(N(Cc2ccc(N(C)C)cc2)C(=O)c2ccc(Cc3cc4c(cc3C)C(C)(C)CCC4(C)C)o2)CN1CC` [drawing 1566]: the inhibition at 10 µM stood at 95%.

On to `CCN1CC(N(CCC(C)CCCC(C)(C)O)C(=O)c2ccc(Cc3cc4c(cc3C)C(C)(C)CCC4(C)C)o2)CN1CC` (centres unmarked) [drawing 1567], for which the inhibition at 10 µM is 104%.

With `CCN1CC(N(CCC(C)c2ccccc2)C(=O)c2ccc(Cc3cc4c(cc3C)C(C)(C)CCC4(C)C)o2)CN1CC` (centres unmarked) [drawing 1568], the inhibition at 10 µM was 95%.

As to `Cc1cc2c(cc1Cc1ccc(C(=O)NCc3cccc(NC(=O)NC(Cc4ccccc4)c4ccccc4)c3)o1)C(C)(C)CCC2(C)C` (centres unmarked) [drawing 1570], the inhibition at 10 µM was 42%.

Regarding `Cc1cc2c(cc1Cc1ccc(C(=O)NCc3cccc(CNC(=O)C(Cc4ccccc4)c4ccccc4)c3)o1)C(C)(C)CCC2(C)C` (centres unmarked) [drawing 1571], the inhibition at 10 µM was determined as 47%.

For the compound `C=C(C)CNC(=O)c1ccc(Cc2cc3c(cc2C)C(C)(C)CCC3(C)C)o1` [drawing 1573], the inhibition at 10 µM was 93%.

With `Cc1cc2c(cc1Cc1ccc(C(=O)NCCc3ccc(F)cc3)o1)C(C)(C)CCC2(C)C` [drawing 1574], the inhibition at 10 µM stood at 79%.

Take `COc1cc(OC)cc(N2CCN(C(=O)c3ccc(Cc4cc5c(cc4C)C(C)(C)CCC5(C)C)o3)CC2)c1` [drawing 1576]: the inhibition at 10 µM amounted to 65%.

Consider `Cc1cc2c(cc1Cc1ccc(C(=O)NC(C)(C)CC(C)(C)C)o1)C(C)(C)CCC2(C)C` [drawing 1577], for which the inhibition at 10 µM amounted to 66%.

For `Cc1cc2c(cc1Cc1ccc(C(=O)N3CCC(NC(=O)C(F)(F)F)C3)o1)C(C)(C)CCC2(C)C` (centres unmarked) [drawing 1578], the inhibition at 10 µM was 60%.

For the compound `CSCCC(CO)NC(=O)c1ccc(Cc2cc3c(cc2C)C(C)(C)CCC3(C)C)o1` (centres unmarked) [drawing 1580], the inhibition at 10 µM came to 105%.

On to `CC[C@H](C)C(CO)NC(=O)c1ccc(Cc2cc3c(cc2C)C(C)(C)CCC3(C)C)o1` (some centres unmarked) [drawing 1581], for which the inhibition at 10 µM stood at 77%.

As to `COc1cc2c(cc1OC)C(CC#N)N(C(=O)c1ccc(Cc3cc4c(cc3C)C(C)(C)CCC4(C)C)o1)CC2` (centres unmarked) [drawing 1582], the inhibition at 10 µM amounted to 52%.

Consider `Cc1cc2c(cc1Cc1ccc(C(=O)N(C)CCC3OCCO3)o1)C(C)(C)CCC2(C)C` [drawing 1583], for which the inhibition at 10 µM stood at 96%.

As to `Cc1cc2c(cc1Cc1ccc(C(=O)NC(C)CN(C)C)o1)C(C)(C)CCC2(C)C` (centres unmarked) [drawing 1584], the inhibition at 10 µM was 92%.

In the case of `Cc1cc2c(cc1Cc1ccc(C(=O)NC(C)(C)CO)o1)C(C)(C)CCC2(C)C` [drawing 1585], the inhibition at 10 µM stood at 90%.

Take `CSCCCNC(=O)c1ccc(Cc2cc3c(cc2C)C(C)(C)CCC3(C)C)o1` [drawing 1586]: the inhibition at 10 µM is 99%.

As to `CSCCNC(=O)c1ccc(Cc2cc3c(cc2C)C(C)(C)CCC3(C)C)o1` [drawing 1587], the inhibition at 10 µM was 97%.

Turning to `CCSCCNC(=O)c1ccc(Cc2cc3c(cc2C)C(C)(C)CCC3(C)C)o1` [drawing 1588], the inhibition at 10 µM was 99%.

For the compound `COC(OC)C(C)NC(=O)c1ccc(Cc2cc3c(cc2C)C(C)(C)CCC3(C)C)o1` (centres unmarked) [drawing 1589], the inhibition at 10 µM was found to be 97%.

Turning to `CCCOCCNC(=O)c1ccc(Cc2cc3c(cc2C)C(C)(C)CCC3(C)C)o1` [drawing 1590], the inhibition at 10 µM worked out at 103%.

As for `Cc1cc2c(cc1Cc1ccc(C(=O)NCCC3OCCO3)o1)C(C)(C)CCC2(C)C` [drawing 1591], the inhibition at 10 µM is 104%.

Take `CCOC(=O)CCNC(=O)c1ccc(Cc2cc3c(cc2C)C(C)(C)CCC3(C)C)o1` [drawing 1592]: the inhibition at 10 µM worked out at 99%.

The values above are taken from patent US7101878B1 (Agouron Pharmaceuticals, Inc., priority 1998, dated 2006).
